Data published in article PMC6320938 (Molecules, 2018).

Columns and labels:
[1] = design: method as in PMID 27019565; conditions: oral raw vs wheat bran-processed Atractylodis Rhizoma; cited from earlier work
[2] = Short-term stability in rat plasma at room temperature; assay type: in vitro ADME; conditions: for RE: room temperature stability; for 0 h Measured C / 4 h Measured C / 6 h Measured C: room temperature
Method: The stabilities of atractylenolides I, II, and III, and atractyloside A in rat plasma were evaluated at three different QC concentrations using six replicates under two conditions, including at 25 °C for 6 h, and three freeze and thaw cycles. Unextracted QC samples of the four compounds at low, medium, and high concentrations were kept at ambient temperature (25 °C) for 6 h to determine the short-term stability of the compounds in rat plasma. The samples were processed and analyzed, and then the concentrations were compared with the nominal values of the QC samples. The stabilities of the plasma samples after three freeze and thaw cycles were determined. In each cycle, the QC samples were stored at −20 °C for 24 h and thawed unassisted at room temperature. When completely thawed, the samples were refrozen within 24 h. The cycle was repeated three times and the samples were analyzed after the third cycle. Stability was assessed by comparing the mean concentration of the stored QC samples with the mean concentration of freshly prepared QC samples.

in vivo = conditions: for AUC(0-t): AUC0–t; for AUC(0-inf): AUC0–∞; for MRT inf: MRT0–∞
Source text: The validated UPLC-MS/MS method was used to measure atractylenolides I, II, and III, and atractyloside A simultaneously in rat plasma after oral administration of raw and wheat bran-processed Atractylodis Rhizoma at a dose of 3.75 g/kg. The integrated pharmacokinetics data were estimated by Drug and Statistics 3.0 (BioGuider Medicinal Technology Co. Ltd, Shanghai, China).
A UPLC system (Acquity, Waters, Milford, MA, USA) coupled with a mass spectrometer detector (XEVO-TQ-S, Waters) was used. The separation was performed on an Acquity UPLC BEH C18 column (Waters; 2.1 × 100 mm, 1.7 µm). The mobile phase consisted of acetonitrile (solution A) and ultrapure water with 0.1% methanoic acid (solution B). […] The mobile phase was delivered at a flow rate of 0.30 mL/min. The column and autosampler temperature were maintained at 40 and 10 °C, respectively. The injection volume was 2 µL and the eluent was detected by mass spectrometry with electrospray ionization (ESI) in positive scan mode. The optimized detector parameters were as follows: positive ESI with a capillary voltage of 3.0 kV; desolvation temperature of 400 °C; desolvation gas flow of 800 L/h, core gas flow of 150 L/h, and nebulizer gas flow of 7 bar. Selected multiple reaction monitoring (MRM), using the precursor to product ion combinations of m/z 233.3→187.2, 231.2→185.2, 249.2→231.2, 471.3→203.2, 151.9→110.16, was used to detect atractylenolides I, II, and III, atractyloside A, and the internal standard (IS), acetaminophen, respectively (Table 8).
Plasma samples were extracted by methanol precipitation. The plasma sample (200 µL) was spiked with IS solution (100 µL, 52 ng/mL), extracted with methanol (800 µL) by vortexing for 2 min, centrifuged at 17,108× g for 10 min, and then evaporated to dryness under a gentle stream of nitrogen. The residue was reconstituted in the mobile phase (100 µL), vortexed for 1 min, and centrifuged at 17,108× g for 10 min. Finally, the supernatant (3 µL) was injected into the UPLC-MS/MS system for analysis.
Ten rats were randomly divided into two groups (five per group). The two groups were orally administered raw Atractylodis Rhizoma at a dose of 3.75 g/kg (equal to 0.48, 0.6, 0.68, and 3.11 mg/kg of atractylenolides I, II, and III, and atractyloside A, respectively), and wheat bran-processed Atractylodis Rhizoma extract solution (equal to 0.46, 0.75, 0.56, and 3.03 mg/kg of atractylenolides I, II, and III, and atractyloside A, respectively). Plasma samples (0.3 mL) were collected in heparinized tubes from the orbital sinus at […], 0.25, 0.5, 1, 1.5,2, 3, 4, 6, 8, 10, and 12 h, and were then immediately centrifuged at 17,108× g for 10 min. The supernatant was transferred to clean test tubes and stored at −20 °C until analysis. Pharmacokinetic parameters, including the area under the blood concentration-time curve (AUC0–∞), elimination half-life (t1/2), apparent volume of distribution (Vd/F), and oral clearance (CL/F) were calculated by a noncompartmental method using Drug and Statistics 3.0 (Chinese Pharmacological Society, Shanghai, China). Other parameters were obtained directly from the experimental observations.
The pharmacokinetic parameters of atractylenolides I, II, and III, and atractyloside A were analyzed by using the one-way ANOVA test with SPSS 17.0 (SPSS Inc., Chicago, IL, USA) and linear regression analysis. The integrated concentrations at each time point for the four compounds were calculated based on the AUC weighting approach using equations (1)–(3). The weighting coefficient (Wj) and the total concentration of each compound (∑AUC0–∞) were calculated by: (1) w1=AUC0–∞/∑AUC0–∞ ∑AUC0–∞ = AUC0–∞ AT-I + AUC0–∞ AT-II + AUC0–∞ AT-III + AUC0–∞ atractyloside A(2)

[3] = Freeze-thaw stability in rat plasma; assay type: in vitro ADME; conditions: for One Time Measured C / Two Time Measured C / Zero Time Measured C: freeze-thaw (−20 °C / room temperature); for RE: freeze-thaw stability
Method: […] Unextracted QC samples of the four compounds at low, medium, and high concentrations were kept at ambient temperature (25 °C) for 6 h to determine the short-term stability of the compounds in rat plasma. The samples were processed and analyzed, and then the concentrations were compared with the nominal values of the QC samples. […] In each cycle, the QC samples were stored at −20 °C for 24 h and thawed unassisted at room temperature. When completely thawed, the samples were refrozen within 24 h. […] Stability was assessed by comparing the mean concentration of the stored QC samples with the mean concentration of freshly prepared QC samples.

[4] = system: ear edema induced by xylene; design: method as in PMID 19023804; conditions: ear edema induced by xylene in mice; cited from earlier work
HL-60 cells = conditions: via Cu, Zn-superoxide dismutase inhibition; cited from earlier work
[5] = system: rhubarb-induced spleen deficiency; design: method as in PMID 24815219; conditions: rhubarb-induced spleen deficiency in rats; cited from earlier work
[6] = high QC: added 140 (atractylenolide I), 200 (II, III), 172 (atractyloside A) ng/mL
[7] = low QC: added 5.6 (atractylenolide I), 8 (II, III), 6.88 (atractyloside A) ng/mL
[8] = medium QC: added 28 (atractylenolide I), 40 (II, III), 17.2 (atractyloside A) ng/mL
[9] = rat, in vivo, po, 3.75 g/kg, rat plasma, oral raw Atractylodis Rhizoma 3.75 g/kg, mean ± SD, n = 5
[10] = rat, in vivo, po, 3.75 g/kg, rat plasma, oral wheat bran-processed Atractylodis Rhizoma 3.75 g/kg, mean ± SD, n = 5

For `C/C=C/C#CC#C/C=C/c1ccco1` [atractylodin], the “effect of stir-frying the rhizome with wheat bran on absorption” value [1] is listed as “promoted and accelerated the absorption”.

With `CC(C)(OC1OC(CO)C(O)C(O)C1O)C1CCC(O)(CO)C2CC(=O)C(C)(O)C2C1` (stereo not drawn) [Atractyloside A] the RE [2, 6] was −0.17%, the RE [2, 7] was −6.2% and the RE [2, 8] was −0.85%. For the same molecule, the “0 h Measured C” value [2, 6] was 172.31 ng/mL, the “4 h Measured C” value [2, 6] was 171.50 ng/mL and the “6 h Measured C” value [2, 6] was 171.32 ng/mL. For the same molecule, the “0 h Measured C” value [2, 7] was 6.81 ng/mL, the “4 h Measured C” value [2, 7] was 6.41 ng/mL and the “6 h Measured C” value [2, 7] was 6.14 ng/mL. For the same molecule, the “0 h Measured C” value [2, 8] was 17.16 ng/mL, the “4 h Measured C” value [2, 8] was 17.02 ng/mL and the “6 h Measured C” value [2, 8] was 16.98 ng/mL. For the same molecule, the “Cmax ratio, wheat bran-processed group vs raw group” value (in vivo; rat plasma, oral 3.75 g/kg) was 1.20 fold, the AUC(0-t) (in vivo; [9]) was 138 ± 60.1 ng·h/mL and the AUC(0-t) (in vivo; [10]) was 307 ± 73.8 ng·h/mL. It also gave an AUC(0-inf) (in vivo; rat, in vivo, po, 3.75 g/kg, Table 6, rat plasma, oral raw Atractylodis Rhizoma 3.75 g/kg) of 167 ng·h/mL, an AUC(0-inf) (in vivo; rat, in vivo, po, 3.75 g/kg, Table 6, rat plasma, oral wheat bran-processed Atractylodis Rhizoma 3.75 g/kg) of 325 ng·h/mL and an AUC(0-inf) (in vivo; [9]) of 167 ± 90.1 ng·h/mL. It also gave an AUC(0-inf) (in vivo; [10]) of 325 ± 72.1 ng·h/mL, a Cmax (in vivo; rat, in vivo, po, 3.75 g/kg, Cmax, rat plasma, oral raw Atractylodis Rhizoma 3.75 g/kg, mean ± SD, n = 5) of 57.8 ± 21.6 ng/mL and a Cmax (in vivo; rat, in vivo, po, 3.75 g/kg, Cmax, rat plasma, oral wheat bran-processed Atractylodis Rhizoma 3.75 g/kg, mean ± SD, n = 5) of 69.4 ± 8.29 ng/mL. It also gave an MRT inf (in vivo; [9]) of 6.05 ± 2.58 h, an MRT inf (in vivo; [10]) of 4.87 ± 0.84 h and a Tmax (in vivo; [9]) of 0.95 ± 0.11 h. The Tmax (in vivo; [10]) was 1.5 h, the half-life (in vivo; rat, in vivo, po, 3.75 g/kg, t1/2, rat plasma, oral raw Atractylodis Rhizoma 3.75 g/kg, mean ± SD, n = 5) was 3.95 ± 2.22 h and the half-life (in vivo; rat, in vivo, po, 3.75 g/kg, t1/2, rat plasma, oral wheat bran-processed Atractylodis Rhizoma 3.75 g/kg, mean ± SD, n = 5) was 2.55 ± 0.98 h. The “One Time Measured C” value [3, 6] was 171.48 ng/mL, the “Two Time Measured C” value [3, 6] was 171.65 ng/mL and the “Zero Time Measured C” value [3, 6] was 172.73 ng/mL. For the same molecule, the “One Time Measured C” value [3, 7] was 6.38 ng/mL, the “Two Time Measured C” value [3, 7] was 6.02 ng/mL and the “Zero Time Measured C” value [3, 7] was 6.39 ng/mL. For the same molecule, the “One Time Measured C” value [3, 8] was 17.36 ng/mL, the “Two Time Measured C” value [3, 8] was 17.02 ng/mL and the “Zero Time Measured C” value [3, 8] was 17.86 ng/mL. The RE [3, 6] was −0.03%, the RE [3, 7] was −8.96% and the RE [3, 8] was 1.24%.

For `C=C1CCC[C@]2(C)C[C@]3(O)OC(=O)C(C)=C3C[C@@H]12` [Atractylenolide III], the “AUC0–t” value (in vivo; rat, in vivo, po, 3.75 g/kg) was 284.83 ± 32.94 * h·μg/L, the Cmax (in vivo; rat, in vivo, po, 3.75 g/kg) was 113.10 ± 19.04 ng/mL and the “MRT0–∞” value (in vivo; rat, in vivo, po, 3.75 g/kg) was 3.07 ± 0.31 h. For the same molecule, the t1/2 (in vivo; rat, in vivo, po, 3.75 g/kg) was 1.81 ± 0.79 h, the AUC(0-t) (in vivo; rat, in vivo, po, 3.75 g/kg) was 231 ± 76.8 ng·h/mL and the AUC(0-inf) (in vivo; rat, in vivo, po, 3.75 g/kg) was 233 ng·h/mL. The Cmax (in vivo; rat, in vivo, po, 3.75 g/kg, Cmax) was 87 ± 17 ng/mL, the MRT inf (in vivo; rat, in vivo, po, 3.75 g/kg) was 3.48 ± 0.29 h and the Tmax (in vivo; rat, in vivo, po, 3.75 g/kg) was 1 h. For the same molecule, the half-life (in vivo; rat, in vivo, po, 3.75 g/kg, t1/2) was 1.56 ± 0.61 h and the anti-inflammatory activity [4] was “inhibition of ear edema”.

In the case of `C=C1CCC[C@]2(C)C=C3OC(=O)C(C)=C3C[C@@H]12` [Atractylenolide I], the “anticancer activity (apoptosis)” value (HL-60 cells) is given as “inducing apoptosis”, the anti-inflammatory activity [4] is given as “inhibition of ear edema” and the “treatment of spleen deficiency” value [5] is given as “can be used to treat rhubarb-induced spleen deficiency”.
